In patent US20090181963A1, “3H-[1,2,3]TRIAZOLO[4,5-D]PYRIMIDINE COMPOUNDS, THEIR USE AS mTOR KINASE AND PI3 KINASE INHIBITORS, AND THEIR [sequence]” (Wyeth, priority 2008, published 2009):

Assays:
[1] = molecular target: PI3 Kinase γ (Homo sapiens, UniProt P48736); experiment: Fluorescence polarization assay for PI3K (PI3 Kinase γ); type: biochemical; details: diC8-PI(4,5)P2 substrate, 25 μM ATP, one hour at 25° C.
[2] = molecular target: PI3 Kinase α (Homo sapiens, UniProt P42336); experiment: Fluorescence polarization assay for PI3K (PI3 Kinase α); type: biochemical; details: diC8-PI(4,5)P2 substrate, 25 μM ATP, one hour at 25° C.
Sequence of PI3 Kinase α (P42336 whole entry): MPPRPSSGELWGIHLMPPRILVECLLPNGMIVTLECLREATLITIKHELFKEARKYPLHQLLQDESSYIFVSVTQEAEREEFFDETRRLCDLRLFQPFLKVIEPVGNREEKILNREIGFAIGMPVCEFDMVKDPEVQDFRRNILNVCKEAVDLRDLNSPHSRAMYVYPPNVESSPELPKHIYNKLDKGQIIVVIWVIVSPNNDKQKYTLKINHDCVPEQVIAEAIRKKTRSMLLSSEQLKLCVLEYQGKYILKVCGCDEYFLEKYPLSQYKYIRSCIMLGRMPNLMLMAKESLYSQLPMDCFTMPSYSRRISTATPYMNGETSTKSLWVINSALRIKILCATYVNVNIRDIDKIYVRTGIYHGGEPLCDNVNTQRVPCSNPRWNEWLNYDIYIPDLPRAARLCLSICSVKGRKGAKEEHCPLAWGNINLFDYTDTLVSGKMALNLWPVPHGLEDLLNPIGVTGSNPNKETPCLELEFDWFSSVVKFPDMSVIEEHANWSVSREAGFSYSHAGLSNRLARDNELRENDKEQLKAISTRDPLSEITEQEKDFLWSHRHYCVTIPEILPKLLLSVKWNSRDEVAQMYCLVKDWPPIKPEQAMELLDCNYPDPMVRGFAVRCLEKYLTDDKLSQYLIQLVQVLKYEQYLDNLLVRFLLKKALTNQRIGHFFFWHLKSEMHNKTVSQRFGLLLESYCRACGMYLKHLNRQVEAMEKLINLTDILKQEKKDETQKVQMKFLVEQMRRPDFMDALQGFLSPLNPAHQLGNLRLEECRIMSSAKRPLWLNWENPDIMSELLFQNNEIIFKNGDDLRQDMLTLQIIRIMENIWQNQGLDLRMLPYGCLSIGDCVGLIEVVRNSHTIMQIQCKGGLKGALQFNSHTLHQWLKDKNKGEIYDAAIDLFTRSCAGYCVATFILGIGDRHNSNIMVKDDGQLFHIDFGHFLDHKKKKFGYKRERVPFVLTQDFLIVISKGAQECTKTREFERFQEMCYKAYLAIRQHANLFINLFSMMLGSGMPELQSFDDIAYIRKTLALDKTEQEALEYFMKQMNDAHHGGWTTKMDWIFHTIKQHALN
Sequence of PI3 Kinase α (P27986 whole entry partner): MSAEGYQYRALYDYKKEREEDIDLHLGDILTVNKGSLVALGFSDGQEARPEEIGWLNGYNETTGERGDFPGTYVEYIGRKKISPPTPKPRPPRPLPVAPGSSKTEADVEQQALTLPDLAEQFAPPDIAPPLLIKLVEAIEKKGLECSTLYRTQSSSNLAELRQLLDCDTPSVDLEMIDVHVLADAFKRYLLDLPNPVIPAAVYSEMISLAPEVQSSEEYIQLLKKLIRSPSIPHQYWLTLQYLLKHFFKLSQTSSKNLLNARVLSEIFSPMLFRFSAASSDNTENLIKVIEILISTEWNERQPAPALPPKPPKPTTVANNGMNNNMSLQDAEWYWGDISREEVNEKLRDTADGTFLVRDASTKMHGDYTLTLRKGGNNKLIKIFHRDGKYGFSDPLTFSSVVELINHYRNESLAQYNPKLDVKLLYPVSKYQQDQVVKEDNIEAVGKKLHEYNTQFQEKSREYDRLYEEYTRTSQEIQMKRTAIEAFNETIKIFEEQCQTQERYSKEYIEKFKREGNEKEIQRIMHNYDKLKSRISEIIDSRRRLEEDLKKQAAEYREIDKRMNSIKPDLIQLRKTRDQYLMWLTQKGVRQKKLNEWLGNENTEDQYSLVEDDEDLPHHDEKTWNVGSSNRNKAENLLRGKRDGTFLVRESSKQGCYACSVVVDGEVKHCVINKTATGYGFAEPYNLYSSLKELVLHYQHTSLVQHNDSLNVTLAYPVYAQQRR

Sequence of PI3 Kinase γ (P48736 whole entry): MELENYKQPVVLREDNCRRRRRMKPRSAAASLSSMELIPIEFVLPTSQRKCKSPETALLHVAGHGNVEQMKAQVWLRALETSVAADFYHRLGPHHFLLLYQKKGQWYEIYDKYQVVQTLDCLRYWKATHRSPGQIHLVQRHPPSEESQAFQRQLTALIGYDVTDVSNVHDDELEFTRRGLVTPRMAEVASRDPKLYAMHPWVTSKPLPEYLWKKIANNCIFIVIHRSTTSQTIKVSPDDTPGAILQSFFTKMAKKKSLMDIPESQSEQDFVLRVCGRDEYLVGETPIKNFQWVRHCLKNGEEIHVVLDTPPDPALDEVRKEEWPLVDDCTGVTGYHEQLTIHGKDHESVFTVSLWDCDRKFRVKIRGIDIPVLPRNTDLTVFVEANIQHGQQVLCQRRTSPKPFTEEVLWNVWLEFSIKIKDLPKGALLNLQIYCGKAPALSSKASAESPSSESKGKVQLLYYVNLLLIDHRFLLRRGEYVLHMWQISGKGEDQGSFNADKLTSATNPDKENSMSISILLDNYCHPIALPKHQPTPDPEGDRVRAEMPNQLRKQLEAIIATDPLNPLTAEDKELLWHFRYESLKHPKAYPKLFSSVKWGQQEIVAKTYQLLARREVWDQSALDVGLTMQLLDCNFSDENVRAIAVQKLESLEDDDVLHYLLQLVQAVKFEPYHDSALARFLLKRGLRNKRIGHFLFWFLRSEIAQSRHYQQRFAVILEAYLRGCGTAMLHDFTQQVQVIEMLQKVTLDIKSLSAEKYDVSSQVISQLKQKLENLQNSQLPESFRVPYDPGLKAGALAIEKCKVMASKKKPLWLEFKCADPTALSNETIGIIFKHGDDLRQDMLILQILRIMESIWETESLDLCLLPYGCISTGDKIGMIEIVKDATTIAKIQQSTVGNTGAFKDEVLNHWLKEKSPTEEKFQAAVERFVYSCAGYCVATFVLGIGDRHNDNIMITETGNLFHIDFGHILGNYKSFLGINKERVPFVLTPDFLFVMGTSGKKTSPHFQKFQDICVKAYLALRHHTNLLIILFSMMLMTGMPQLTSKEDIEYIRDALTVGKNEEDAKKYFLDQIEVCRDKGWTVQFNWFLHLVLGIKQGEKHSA

IC50 [1] [nM]	IC50 [2] [nM]	SMILES
19.5	3	O=C(Nc1ccc(-c2nc(N3CCOCC3)c3nnn(C4CC4)c3n2)cc1)Nc1cccs1 [Example 80, 1-(4-(3-cyclopropyl-7-morpholino-3H-[1,2,3]triazolo[4,5-d]pyrimidin-5-yl)phenyl)-3-(thiophen-2-yl)urea]
5060	1130	CN(C)CCNC(=O)Cn1nnc2c(N3CCOCC3)nc(-c3cccc(CO)c3)nc21 [Example 239, N-[2-(dimethylamino)ethyl]-2-{5-[3-(hydroxymethyl)phenyl]-7-morpholin-4-yl-3H-[1,2,3]triazolo[4,5-d]pyrimidin-3-yl}acetamide]
9110	1410	CCn1nnc2c(N3CCOCC3)nc(-c3ccc(N)c(OC)c3)nc21 [Example 175, 4-(3-ethyl-7-morpholin-4-yl-3H-[1,2,3]triazolo[4,5-d]pyrimidin-5-yl)-2-methoxyaniline]
1240	134	Oc1cccc(-c2nc(N3CCOCC3)c3nnn(C4CN(Cc5ccccc5)C4)c3n2)c1 [Example 127, 3-[3-(1-benzylazetidin-3-yl)-7-morpholin-4-yl-3H-[1,2,3]triazolo[4,5-d]pyrimidin-5-yl]phenol]
454	541	Oc1cncc(-c2nc(N3CCOCC3)c3nnn(C4CCN(Cc5ccc(Cl)nc5)CC4)c3n2)c1 [Example 20, 5-(3-{1-[(6-chloropyridin-3-yl)methyl]piperidin-4-yl}-7-morpholin-4-yl-3H-[1,2,3]triazolo[4,5-d]pyrimidin-5-yl)pyridin-3-ol]
406	81.5	Oc1cccc(-c2nc(N3CCOCC3)c3nnn(C4CCNCC4)c3n2)c1 [Example 144, 3-(7-morpholin-4-yl-3-piperidin-4-yl-3H-[1,2,3]triazolo[4,5-d]pyrimidin-5-yl)phenol]
31	5.5	CCn1nnc2c(N3CCOCC3)nc(-c3ccc(NC(=O)Nc4ccc(C(=O)N5CCC(N6CCOCC6)CC5)cc4)cc3)nc21 [Example 48, 1-[4-(3-ethyl-7-morpholin-4-yl-3H-[1,2,3]triazolo[4,5-d]pyrimidin-5-yl)phenyl]-3-{4-[(4-morpholin-4-ylpiperidin-1-yl)carbonyl]phenyl}urea]
22	6.5	Cn1nnc2c(N3CCOCC3)nc(-c3ccc(NC(=O)Nc4cccs4)cc3)nc21 [Example 200, 1-[4-(3-methyl-7-morpholin-4-yl-3H-[1,2,3]triazolo[4,5-d]pyrimidin-5-yl)phenyl]-3-(2-thienyl)urea]
890	108	CC(C)(C)OC(=O)N1CC(n2nnc3c(N4CCOCC4)nc(-c4cccc(O)c4)nc32)C1 [Example 124, tert-butyl 3-[5-(3-hydroxyphenyl)-7-morpholin-4-yl-3H-[1,2,3]triazolo[4,5-d]pyrimidin-3-yl]azetidine-1-carboxylate]
88	38	O=C(Nc1ccc(-c2nc(N3CCOCC3)c3nnn(CC(F)(F)F)c3n2)cc1)Nc1cncnc1 [Example 136, 1-{4-[7-morpholin-4-yl-3-(2,2,2-trifluoroethyl)-3H-[1,2,3]triazolo[4,5-d]pyrimidin-5-yl]phenyl}-3-pyrimidin-5-ylurea]
7440	341	CCn1nnc2c(N3CCOCC3)nc(-c3ccc(NC(=O)OCCc4ccc(N)cc4)cc3)nc21 [Example 38, 2-(4-aminophenyl)ethyl [4-(3-ethyl-7-morpholin-4-yl-3H-[1,2,3]triazolo[4,5-d]pyrimidin-5-yl)phenyl]carbamate]
11.5	2.5	CCn1nnc2c(N3CCOCC3)nc(-c3ccc(NC(=O)Nc4cccs4)cc3)nc21 [Example 40, 1-[4-(3-ethyl-7-morpholin-4-yl-3H-[1,2,3]triazolo[4,5-d]pyrimidin-5-yl)phenyl]-3-(2-thienyl)urea]
4360	1020	CC(C)(C)OC(=O)N1CCN(CCn2nnc3c(N4CCOCC4)nc(-c4cccc(O)c4)nc32)CC1 [Example 97, tert-butyl 4-{2-[5-(3-hydroxyphenyl)-7-morpholin-4-yl-3H-[1,2,3]triazolo[4,5-d]pyrimidin-3-yl]ethyl}piperazine-1-carboxylate]
12.5	3	O=C(Nc1ccc(CCO)cc1)Nc1ccc(-c2nc(N3CCOCC3)c3nnn(CC(F)(F)F)c3n2)cc1 [Example 138, 1-[4-(2-hydroxyethyl)phenyl]-3-{4-[7-morpholin-4-yl-3-(2,2,2-trifluoroethyl)-3H-[1,2,3]triazolo[4,5-d]pyrimidin-5-yl]phenyl}urea]
1230	204	CCN1CCCC1Cn1nnc2c(N3CCOCC3)nc(-c3cccc(O)c3)nc21 (stereo not drawn) [Example 172, 3-{3-[(1-ethylpyrrolidin-2-yl)methyl]-7-morpholin-4-yl-3H-[1,2,3]triazolo[4,5-d]pyrimidin-5-yl}phenol]
1210	332	Oc1cccc(-c2nc(N3CCOCC3)c3nnn(CCCCN4CCCC4)c3n2)c1 [Example 205, 3-[7-Morpholin-4-yl-3-(4-pyrrolidin-1-ylbutyl)-3H-[1,2,3]triazolo[4,5-d]pyrimidin-5-yl]phenol]
1180	303	O=C(NC1CC1)c1ccc(Cn2nnc3c(N4CCOCC4)nc(-c4cccc(O)c4)nc32)cc1 [Example 221, N-cyclopropyl-4-{[5-(3-hydroxyphenyl)-7-morpholin-4-yl-3H-[1,2,3]triazolo[4,5-d]pyrimidin-3-yl]methyl}benzamide]
> 10000	> 10000	COC(=O)c1cccc(-n2nnc3c(N4CCOCC4)nc(-c4cccc(C=O)c4)nc32)c1 [Example 116, methyl 3-[5-(3-formylphenyl)-7-morpholin-4-yl-3H-[1,2,3]triazolo[4,5-d]pyrimidin-3-yl]benzoate]
1400	111	CC(C)(C)OC(=O)N1CCC(n2nnc3c(N4CCOCC4)nc(-c4cnc(N)nc4)nc32)CC1 [Example 148, tert-butyl 4-[5-(2-aminopyrimidin-5-yl)-7-morpholin-4-yl-3H-[1,2,3]triazolo[4,5-d]pyrimidin-3-yl]piperidine-1-carboxylate]
1360	122	CC(C)(C)OC(=O)N1CCC(NC(=O)c2ccc(Cn3nnc4c(N5CCOCC5)nc(-c5cccc(O)c5)nc43)cc2)CC1 [Example 208, tert-butyl 4-[(4-{[5-(3-hydroxyphenyl)-7-morpholin-4-yl-3H-[1,2,3]triazolo[4,5-d]pyrimidin-3-yl]methyl}benzoyl)amino]piperidine-1-carboxylate]
3790	189	CC(C)(C)OC(=O)N1CCC(n2nnc3c(N4CCOCC4)nc(-c4cccc(O)c4)nc32)CC1 [Example 143, tert-butyl 4-[5-(3-hydroxyphenyl)-7-morpholin-4-yl-3H-[1,2,3]triazolo[4,5-d]pyrimidin-3-yl]piperidine-1-carboxylate]
69	23.5	CC(C)n1nnc2c(N3CCOCC3)nc(-c3ccc(NC(=O)Nc4ccc(N(C)C)cc4)cc3)nc21 [Example 86, 1-(4-dimethylamino-phenyl)-3-[4-(3-isopropyl-7-morpholin-4-yl-3H-[1,2,3]triazolo[4,5-d]pyrimidin-5-yl)-phenyl]-urea]
11.5	< 1.9	CCn1nnc2c(N3CCOCC3)nc(-c3ccc(NC(=O)Nc4ccc(C(=O)N(C)CCNC)cc4)cc3)nc21 [Example 52, 4-({[4-(3-ethyl-7-morpholin-4-yl-3H-[1,2,3]triazolo[4,5-d]pyrimidin-5-yl)phenyl]carbamoyl}amino)-N-methyl-N-[2-(methylamino)ethyl]benzamide]
1880	560	CNC(=O)Cn1nnc2c(N3CCOCC3)nc(-c3cccc(CO)c3)nc21 [Example 236, 2-{5-[3-(hydroxymethyl)phenyl]-7-morpholin-4-yl-3H-[1,2,3]triazolo[4,5-d]pyrimidin-3-yl}-N-methylacetamide]
3550	538	O=C(c1ccc(F)cc1)N1CCN(CCn2nnc3c(N4CCOCC4)nc(-c4cccc(O)c4)nc32)CC1 [Example 101, 3-(3-{2-[4-(4-fluorobenzoyl)piperazin-1-yl]ethyl}-7-morpholin-4-yl-3H-[1,2,3]triazolo[4,5-d]pyrimidin-5-yl)phenol]
3580	151	CC(C)(C)OC(=O)N1CCC(n2nnc3c(N4CCOCC4)nc(-c4ccc(NC(=O)Nc5ccc(F)cc5)cc4)nc32)CC1 [Example 165, tert-butyl 4-[5-(4-{[(4-fluorophenyl)carbamoyl]amino}phenyl)-7-morpholin-4-yl-3H-[1,2,3]triazolo[4,5-d]pyrimidin-3-yl]piperidine-1-carboxylate]
873	60.5	Nc1ccccc1C(=O)N1CC(n2nnc3c(N4CCOCC4)nc(-c4cccc(O)c4)nc32)C1 [Example 126, (2-amino-phenyl)-{3-[5-(3-hydroxy-phenyl)-7-morpholin-4-yl-[1,2,3]triazolo[4,5-d]pyrimidin-3-yl]-azetidin-1-yl}-methanone]
69.5	13.5	CC(C)n1nnc2c(N3CCOCC3)nc(-c3ccc(NC(=O)Nc4ccc(F)cc4)cc3)nc21 [Example 87, 1-(4-fluoro-phenyl)-3-[4-(3-isopropyl-7-morpholin-4-yl-3H-[1,2,3]triazolo[4,5-d]pyrimidin-5-yl)-phenyl]-urea]
33	6	CCCCNC(=O)c1ccc(NC(=O)Nc2ccc(-c3nc(N4CCOCC4)c4nnn(CC)c4n3)cc2)cc1 [Example 62, N-butyl-4-({[4-(3-ethyl-7-morpholin-4-yl-3H-[1,2,3]triazolo[4,5-d]pyrimidin-5-yl)phenyl]carbamoyl}amino)benzamide]
1400	420	CC(C)(C)NC(=O)c1ccc(Cn2nnc3c(N4CCOCC4)nc(-c4cccc(O)c4)nc32)cc1 [Example 222, N-tert-butyl-4-{[5-(3-hydroxyphenyl)-7-morpholin-4-yl-3H-[1,2,3]triazolo[4,5-d]pyrimidin-3-yl]methyl}benzamide]
